Source: patent US11286258B2, “Nature-inspired anticancer and antibacterial motifs and pharmaceutical composition thereof” (University of Sharjah, priority 2020, dated 2022)
Converted amounts (≈) assume the structure as drawn.

Assays:
[1] = system: MRSA-1 (clinical isolate); experiment: MIC broth microdilution, MRSA-1; assay type: cell-based, Staphylococcus aureus; conditions: Staphylococcus aureus, MRSA; overnight incubation, Mueller-Hinton broth; read-out: MIC MRSA-1 (clinical isolate)
Protocol: (§1) Antibacterial activity: The compounds were tested for the minimum inhibitory concentrations (MIC), which is the lowest concentration of a chemical required to inhibit visible microbial growth following overnight incubation. MIC values were determined using broth microdilution method according to the Clinical and Laboratory Standards Institute guidelines (CLSI, 2015, M07-A10). Mueller-Hinton broth was used as a culture medium in all the experiments. Exponentially growing bacterial cells were prepared in Mueller-Hinton broth at a concentration of approximately 5×10^5 CFU/mL. Two-fold serial dilutions of the test compound (8 concentrations ranged between 100-0.78 μg/mL) were tested. […] In each experiment, solvent (DMSO) was used as a negative control, un-treated control (composing of bacteria in Mueller-Hinton broth) was used as a growth control, blank (culture media alone) was used as sterility control. The 96-well microplate with the test compounds was incubated overnight at 37° C. Turbidity in wells indicated bacterial growth.
(§2) The compounds were tested on six MDR Gram-positive bacteria including three clinical isolates of methicillin-resistant Staphylococcus aureus (MRSA-1, MRSA-2 and MRSA-3) and three reference MRSA strains (ATCC33591, ATCC33592 and ATCC700699). They were also tested on three MDR Gram-negative bacteria including New Delhi metallo-beta-lactamase (NDM-1) positive, carbapenem-resistant E. coli (ATCC BAA2469), extended-spectrum beta-lactamase (ESBL) producing, colistin-resistant E. coli (CDC-AR-0346) and carbapenem-resistant Acinetobacter baumannii (ATCC BAA1605), in addition to two non-MDR bacteria from the same species, namely E. coli (ATCC 25922) Acinetobacter baumannii (ATCC 19606).

[2] = system: E. coli CDC-AR-0346 (ESBL, colistin resistant); experiment: MIC broth microdilution, E. coli CDC-AR-0346; assay type: cell-based, Escherichia coli; conditions: for MIC fold higher than that of colistin: E. coli CDC-AR-0346, colistin 6.25 μg/mL; for MIC: Escherichia coli, MDR, overnight incubation
Protocol: as §1, §2

[3] = system: Acinetobacter baumannii ATCC BAA1605 (carbapenem-resistant); experiment: MIC broth microdilution, A. baumannii ATCC BAA1605; assay type: cell-based; conditions: Acinetobacter baumannii, ATCCBAA1605, MDR; overnight incubation
Protocol: as §1, §2

HELA = experiment: MTT cell viability, HELA; assay type: cell-based; conditions: Homo sapiens, cervical cancer, 48 h of drug treatment, average of three experiments
Excerpt: (§3) Cell culture: In this study five different cancer cell lines were used, human lung carcinoma (A549), human breast adenoma (MCF-7), Cervical carcinoma (Hela), hepatocellular carcinoma (Hep3B), and colorectal adenocarcinoma (HCT-116). These cells were obtained from the European Collection of Cell Cultures (ECACC, UK). Hep3B cells were maintained in Dulbecco's Modified Eagle Medium (DMEM: Sigma-Aldrich), and the four other cell lines were maintained in Roswell Park Memorial Institute medium (RPMI, Sigma-Aldrich, St. Louis, Mo., USA), which was supplemented with 10% fetal bovine serum (FBS, Sigma-Aldrich) and 1% penicillin/streptomycin (Sigma-Aldrich). Cells were incubated all the time at 37° C. in a humidified atmosphere of 5% CO2. Cell viability studies: Cell viability was assessed using the MTT assay as described before. In brief, all cancer cell lines were seeded at a density of 4×10^4/well in 96 well flat-bottom plates. After 24 h from seeding, cells were treated with the synthesized compounds and left for an incubation period of 48 h. Upon reaching the indicated time point, the media was removed and replaced with 200 μL fresh media containing 0.5 mg/mL of MTT tetrazolium dye (Sigma-Aldrich). Cells were then incubated with MTT solution for 2 h at 37° C. The resultant formazan crystals were dissolved in 200 μl/well of DMSO and absorbance was measured at 570 nm using a microplate reader (Thermo Scientific).

HCT-116 = experiment: MTT cell viability, HCT-116; assay type: cell-based; conditions: Homo sapiens, colon cancer, 48 h of drug treatment, average of three experiments
Excerpt: as §3

MRSA-ATCC33592 = experiment: MIC broth microdilution, MRSA ATCC33592; assay type: cell-based, Staphylococcus aureus; conditions: Staphylococcus aureus; overnight incubation, Mueller-Hinton broth; read-out: MIC MRSA-ATCC33592
Protocol: as §1, §2

[4] = system: MRSA-3 (clinical isolate); experiment: MIC broth microdilution, MRSA-3; assay type: cell-based, Staphylococcus aureus; conditions: Staphylococcus aureus, MRSA; overnight incubation, Mueller-Hinton broth; read-out: MIC MRSA-3 (clinical isolate)
Protocol: as §1, §2

MRSA-ATCC700699 (VISA) = experiment: MIC broth microdilution, MRSA ATCC700699 (VISA); assay type: cell-based, Staphylococcus aureus; conditions: for MIC: Staphylococcus aureus, strain intermediately resistant to vancomycin, overnight incubation, read-out: MIC MRSA-ATCC700699 (VISA)
Protocol: as §1, §2

A549 = experiment: MTT cell viability, A549; assay type: cell-based; conditions: Homo sapiens, lung cancer, 48 h of drug treatment, average of three experiments
Excerpt: as §3

[5] = system: MRSA-2 (clinical isolate); experiment: MIC broth microdilution, MRSA-2; assay type: cell-based, Staphylococcus aureus; conditions: Staphylococcus aureus, MRSA; overnight incubation, Mueller-Hinton broth; read-out: MIC MRSA-2 (clinical isolate)
Protocol: as §1, §2

[6] = system: Acinetobacter baumannii ATCC 19606; experiment: MIC broth microdilution, A. baumannii ATCC 19606; assay type: cell-based; conditions: Acinetobacter baumannii, ATCC19606; not MDR; overnight incubation
Protocol: as §1, §2

[7] = system: E. coli ATCC BAA2469 (NDM-1 carbapenem-resistant); experiment: MIC broth microdilution, E. coli ATCC BAA2469; assay type: cell-based, Escherichia coli; conditions: overnight incubation; for MIC: Escherichia coli, ATCCBAA2469, MDR; for MIC E. coli ATCC BAA2469 (NDM-1 carbapenem-resistant): MDR
Protocol: as §1, §2

MCF-7 = experiment: MTT cell viability, MCF-7; assay type: cell-based; conditions: Homo sapiens, MCF7; breast cancer; 48 h of drug treatment; average of three experiments
Excerpt: as §3

[8] = system: normal epithelial cells (HMEC); experiment: Cell viability, normal epithelial cells; assay type: cell-based; conditions: Homo sapiens, 48 h of drug treatment, average of three experiments
Protocol: Cell viability studies: Cell viability was assessed using the MTT assay as described before. In brief, all cancer cell lines were seeded at a density of 4×10^4/well in 96 well flat-bottom plates. After 24 h from seeding, cells were treated with the synthesized compounds and left for an incubation period of 48 h. Upon reaching the indicated time point, the media was removed and replaced with 200 μL fresh media containing 0.5 mg/mL of MTT tetrazolium dye (Sigma-Aldrich). Cells were then incubated with MTT solution for 2 h at 37° C. The resultant formazan crystals were dissolved in 200 μl/well of DMSO and absorbance was measured at 570 nm using a microplate reader (Thermo Scientific).

HEP3B = experiment: MTT cell viability, HEP3B; assay type: cell-based; conditions: Homo sapiens, liver cancer, 48 h of drug treatment, average of three experiments
Excerpt: as §3

SMILES | MIC [1] [µg/mL] | MIC fold higher than that of colistin [2] [fold] | MIC [2] [µg/mL] | MIC [3] [µg/mL] | IC50 (HELA) [µM] | IC50 (HCT-116) [µM] | MIC (MRSA-ATCC33592) [µg/mL] | MIC [4] [µg/mL] | MIC (MRSA-ATCC700699 (VISA)) [µg/mL] | IC50 (A549) [µM] | MIC [5] [µg/mL] | MIC [6] [µg/mL] | MIC [7] [µg/mL] | MIC E. coli ATCC BAA2469 (NDM-1 carbapenem-resistant) [7] [µg/mL] | IC50 (MCF-7) [µM] | IC50 [8] [µM] | IC50 (HEP3B) [µM] | MIC times less than the MIC of vancomycin (MRSA-ATCC700699 (VISA); VISA strain ATCC 700699, vancomycin 8 μg/mL) [times]
FC(F)(F)c1ccc(N/N=C2\C=C[C@@]3(CC2)CC[C@@H]2NCCc4c2n3c2ccccc42)cc1 (racemic) [Compound 1e] | 1.56 (≈ 3.46 µM) | 2 | 12.5 (≈ 27.7 µM) | 12.5 (≈ 27.7 µM) | 2.56 ± 0.58 | 0.487 ± 0.03 | 3.12 (≈ 6.94 µM) | 1.56 (≈ 3.46 µM) | 3.12 (≈ 6.94 µM) | 4.011 ± 0.02 | 1.56 (≈ 3.46 µM) | 6.25 (≈ 13.9 µM) | 6.25 to 12.5 (≈ 13.9 to 27.7 µM) | 12.5 (≈ 27.7 µM) | 1.86 ± 0.03 | 2.91 ± 0.07 | 2.03 ± 0.08 | –
FC(F)(F)Oc1ccc(N/N=C2\C=C[C@@]3(CC2)CC[C@@H]2NCCc4c2n3c2ccccc42)cc1 [Compound 1f] | 6.25 (≈ 13.4 µM) | – | 25 (≈ 53.6 µM) | 25 (≈ 53.6 µM) | 3.89 ± 0.07 | 1.96 ± 0.05 | 6.25 (≈ 13.4 µM) | 6.25 (≈ 13.4 µM) | 6.25 (≈ 13.4 µM) | 5.99 ± 0.03 | 6.25 (≈ 13.4 µM) | 12.5 (≈ 26.8 µM) | 25 (≈ 53.6 µM) | – | 3.56 ± 0.1 | 18.38 ± 0.05 | 2.64 ± 0.03 | –
Cc1ccc2c(c1)c1c3n2[C@@]2(C=C/C(=N\Nc4ccc(C(F)(F)F)cc4)CC2)CC[C@@H]3NCC1 [Compound 1h] | 1.56 (≈ 3.36 µM) | 2 | 12.5 (≈ 26.9 µM) | 25 (≈ 53.8 µM) | 3.5 ± 0.06 | 1.78 ± 0.7 | 1.56 (≈ 3.36 µM) | 1.56 (≈ 3.36 µM) | 1.56 (≈ 3.36 µM) | 4.897 ± 0.03 | 1.56 (≈ 3.36 µM) | 6.25 (≈ 13.5 µM) | 6.25 to 12.5 (≈ 13.5 to 26.9 µM) | 12.5 (≈ 26.9 µM) | 3.72 ± 0.05 | 11.53 ± 0.04 | 2.56 ± 0.07 | ~5
COc1ccc2c(c1)c1c3n2[C@@]2(C=C/C(=N\Nc4ccc(C(F)(F)F)cc4)CC2)CC[C@@H]3NCC1 [Compound 1k] | 1.56 (≈ 3.25 µM) | – | 50 (≈ 104 µM) | 50 (≈ 104 µM) | 4.514 ± 0.03 | 3.39 ± 0.04 | 3.12 (≈ 6.5 µM) | 1.56 (≈ 3.25 µM) | 3.12 (≈ 6.5 µM) | 5.491 ± 0.05 | 1.56 (≈ 3.25 µM) | 6.25 (≈ 13 µM) | 25 (≈ 52 µM) | – | 3.57 ± 0.34 | 28.01 ± 0.09 | 2.276 ± 0.01 | –
